# Data from patent US20090246292A1, “ANTIMICROBIAL FORMULATIONS COMPRISING A QUINONE AND A COPPER SALT” (priority 2006, published 2009).
# Where two headings read alike, the source gives them in different places.
# Key:
# P. acnes NCTC 737 [1] = assay: Minimum inhibitory concentration (MIC) assay; assay type: cell-based, Propionibacterium acnes
# Text: (§1) (a) Minimum Inhibitory Concentration (MIC) Assay
# (§2) The culture media were as described above.
# (§3) The assays included both negative (culture medium with no micro-organisms) and positive (culture medium plus diluting solvent plus micro-organism) controls.
# P. acnes NCTC 737 [2] = assay: Synergy disc diffusion assay (SDDA), also supplemented
# Experimental: The propionibacteria were cultured and maintained on Wilkins-Chalgren Anaerobe Medium (agar and broth) at pH 6.0; all cultures were incubated anaerobically at 37° C. for 72 hours.
# (e) Synergy Disc Diffusion Assay (SDDA)
# This is a variation on the DDA method, in which two compounds are tested together for their combined antimicrobial activity.
# Two test compounds A and B were placed on a single paper disc and the above described DDA procedure repeated.
# (f) Supplemented Disc Diffusion Assays
# For assays using Propionibacterium spp. strains the supplements used in the examples below were lipid (either Tween™ 80 or triolein, both at 1% v/v) and sodium chloride (100 mM).
# P. acnes NCTC 737 [3] = assay: Disc diffusion assay (DDA), also supplemented;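 note: paper disc carrying compound placed on inoculated Wilkins-Chalgren Anaerobe agar pH 6.0, with lipid or NaCl supplement where listed, anaerobic 37 °C for 72 h, inhibition zone diameter read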
# S. aureus ATCC 29213 [4] = assay: Synergy disc diffusion assay (SDDA), also supplemented;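 note: disc diffusion on Mueller-Hinton agar at pH 7.2, aerobic incubation at 37 °C lasting 19-20 h, two compounds assessed jointly for combined antimicrobial effect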
# S. aureus ATCC 29213 [5] = assay: Minimum bactericidal concentration (MBC) assay; assay type: cell-based, Staphylococcus aureus
# Experimental: (§4) (b) Minimum Bactericidal Concentration (MBC) Assay
# (§5) Following incubation they were examined visually for bacterial growth.
# P. acnes NCTC 737 [6] = assay: Minimum bactericidal concentration (MBC) assay; assay type: cell-based, Propionibacterium acnes
# Experimental: as §4, §5
# S. aureus ATCC 29213 [7] = assay: Disc diffusion assay (DDA), also supplemented
# S. aureus ATCC 29213 [8] = assay: Minimum inhibitory concentration (MIC) assay; assay type: cell-based, Staphylococcus aureus
# Text: as §1, §2, §3
# [9] = copper salt alone, P. acnes NCTC 737
# [10] = copper salt + TBHQ on one disc, 200 μg of each (silicate 62 μg), salt and lipid (1% (v/v) Tween 80)
# [11] = copper salt + TBHQ on one disc, 200 μg of each (silicate 62 μg), unsupplemented
# [12] = copper salt + TBHQ vs larger zone of either compound alone, unsupplemented
# [13] = copper salt + TBHQ, salt and lipid (1% (v/v) Tween 80)
# [14] = copper salt + TBHQ, unsupplemented
# [15] = copper salt alone, 200 μg per disc (silicate 62 μg), 1% (v/v) Tween 80
# [16] = copper salt alone, 200 μg per disc (silicate 62 μg), salt and 1% (v/v) Tween 80
# [17] = copper salt alone, 200 μg per disc (silicate 62 μg), sodium chloride (100 mM)
# [18] = copper salt + TBHQ on one disc, 200 μg of each (silicate 62 μg), salt and serum supplements
# [19] = copper salt + TBHQ, salt and serum supplements
# [20] = copper salt alone, S. aureus ATCC 29213
# [21] = copper salt alone, 200 μg per disc (silicate 62 μg), Tween 80 at 1% v/v
# [22] = copper salt alone, 200 μg per disc (silicate 62 μg), salt and horse serum (5% v/v)
compound,measurement,setting,value
[Br][Cu][Br] [Copper (II) bromide],MIC,P. acnes NCTC 737 [1]; [9],7.8 µg/mL
same,MIC/MBC ratio,P. acnes NCTC 737 [1]; [9],0.125
same,SL SDDA with TBHQ,P. acnes NCTC 737 [2]; [10],65.39 mm
same,SDDA with TBHQ,P. acnes NCTC 737 [2]; [11],66.3 mm
same,SDDA increase,P. acnes NCTC 737 [2]; [12],11.47 mm
same,SL SDDA area increase,P. acnes NCTC 737 [2]; [13],76.46%
same,SL SDDA increase,P. acnes NCTC 737 [2]; [13],16.17 mm
same,SDDA area increase,P. acnes NCTC 737 [2]; [14],46.18%
same,DDA + lipid,P. acnes NCTC 737 [3]; [15],42.37 mm
same,DDA + salt & lipid,P. acnes NCTC 737 [3]; [16],49.23 mm
same,DDA + salt,P. acnes NCTC 737 [3]; [17],47.94 mm
same,SS SDDA with TBHQ,S. aureus ATCC 29213 [4]; [18],44.42 mm
same,SDDA with TBHQ,S. aureus ATCC 29213 [4]; [11],59.26 mm
same,SDDA increase,S. aureus ATCC 29213 [4]; [12],18.84 mm
same,SS SDDA area increase,S. aureus ATCC 29213 [4]; [19],3.42%
same,SS SDDA increase,S. aureus ATCC 29213 [4]; [19],0.74 mm
same,SDDA area increase,S. aureus ATCC 29213 [4]; [14],114.95%
same,MBC,S. aureus ATCC 29213 [5]; [20],>250 µg/mL
same,MBC,P. acnes NCTC 737 [6]; [9],62.5 µg/mL
same,DDA + lipid,S. aureus ATCC 29213 [7]; [21],0 mm
same,DDA + salt & serum,S. aureus ATCC 29213 [7]; [22],0 mm
same,DDA + salt,S. aureus ATCC 29213 [7]; [17],0 mm
same,MIC,S. aureus ATCC 29213 [8]; [20],>250 µg/mL
[Cl-].[Cu+2].[Cu+2].[OH-].[OH-].[OH-] [Copper (II) oxychloride],MIC,P. acnes NCTC 737 [1]; [9],0.98 µg/mL
same,MIC/MBC ratio,P. acnes NCTC 737 [1]; [9],0.06
same,SL SDDA with TBHQ,P. acnes NCTC 737 [2]; [10],54.02 mm
same,SDDA with TBHQ,P. acnes NCTC 737 [2]; [11],59.45 mm
same,SDDA increase,P. acnes NCTC 737 [2]; [12],8.24 mm
same,SL SDDA area increase,P. acnes NCTC 737 [2]; [13],7.76%
same,SL SDDA increase,P. acnes NCTC 737 [2]; [13],1.98 mm
same,SDDA area increase,P. acnes NCTC 737 [2]; [14],34.77%
same,DDA,P. acnes NCTC 737 [3],51.21 mm
same,DDA + lipid,P. acnes NCTC 737 [3]; [15],51.65 mm
same,DDA + salt & lipid,P. acnes NCTC 737 [3]; [16],52.04 mm
same,DDA + salt,P. acnes NCTC 737 [3]; [17],54.47 mm
same,SS SDDA with TBHQ,S. aureus ATCC 29213 [4]; [18],43.89 mm
same,SDDA with TBHQ,S. aureus ATCC 29213 [4]; [11],52.63 mm
same,SDDA increase,S. aureus ATCC 29213 [4]; [12],12.21 mm
same,SS SDDA area increase,S. aureus ATCC 29213 [4]; [19],0.96%
same,SS SDDA increase,S. aureus ATCC 29213 [4]; [19],0.21 mm
same,SDDA area increase,S. aureus ATCC 29213 [4]; [14],69.54%
same,MBC,S. aureus ATCC 29213 [5]; [20],>250 µg/mL
same,MBC,P. acnes NCTC 737 [6]; [9],15.6 µg/mL
same,DDA,S. aureus ATCC 29213 [7],0 mm
same,DDA + lipid,S. aureus ATCC 29213 [7]; [21],0 mm
same,DDA + salt & serum,S. aureus ATCC 29213 [7]; [22],0 mm
same,DDA + salt,S. aureus ATCC 29213 [7]; [17],0 mm
same,MIC,S. aureus ATCC 29213 [8]; [20],>250 µg/mL
On1ccccc1=S.On1ccccc1=S.[Cu] [Copper (II) pyrithione],MIC,P. acnes NCTC 737 [1],0.24 µg/mL
same,MIC/MBC ratio,P. acnes NCTC 737 [1],0.5
same,SDDA area increase,P. acnes NCTC 737 [2],18.55%
same,SDDA increase,P. acnes NCTC 737 [2],5.01 mm
same,SDDA with TBHQ,P. acnes NCTC 737 [2],61.43 mm
same,SL SDDA area increase,P. acnes NCTC 737 [2],7.64%
same,SL SDDA increase,P. acnes NCTC 737 [2],1.25 mm
same,SL SDDA with TBHQ,P. acnes NCTC 737 [2],34.63 mm
same,DDA,P. acnes NCTC 737 [3],56.42 mm
same,DDA + lipid,P. acnes NCTC 737 [3],22.38 mm
same,DDA + salt,P. acnes NCTC 737 [3],43.21 mm
same,DDA + salt & lipid,P. acnes NCTC 737 [3],33.37 mm
same,SDDA area increase,S. aureus ATCC 29213 [4],150.13%
same,SDDA increase,S. aureus ATCC 29213 [4],19.29 mm
same,SDDA with TBHQ,S. aureus ATCC 29213 [4],52.45 mm
same,SS SDDA area increase,S. aureus ATCC 29213 [4],66.12%
same,SS SDDA increase,S. aureus ATCC 29213 [4],9.29 mm
same,SS SDDA with TBHQ,S. aureus ATCC 29213 [4],41.43 mm
same,MBC,S. aureus ATCC 29213 [5],0.49 µg/mL
same,MBC,P. acnes NCTC 737 [6],0.49 µg/mL
same,DDA,S. aureus ATCC 29213 [7],20.51 mm
same,DDA + lipid,S. aureus ATCC 29213 [7],15.25 mm
same,DDA + salt,S. aureus ATCC 29213 [7],21.48 mm
same,DDA + salt & serum,S. aureus ATCC 29213 [7],17.86 mm
same,MIC,S. aureus ATCC 29213 [8],0.49 µg/mL
same,MIC/MBC ratio,S. aureus ATCC 29213 [8],1
